# Laboratory results from US20230085307A1, “PYRIDAZINONE COMPOUND AND HERBICIDE” (NISSAN CHEMICAL CORPORATION, priority 2019, published 2023).
# Key:
# barnyard grass [1] = assay: Test Example 3: herbicidal effect by foliage application, Wagner pot (Table 18, symbol H); format: in vivo, barnyard grass (Echinochloa crus-galli); conditions: 320 g/ha
# How it was run: (§1)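 Plants were sown in alluvial soil held under 0.1–0.5 cm standing water and grown 14 days in a greenhouse at 25–30 °C. An emulsifiable formulation, water-diluted to the set dose, was then sprayed onto the foliage, and effects were scored three weeks later using previously defined criteria.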
# Chinese sprangletop = assay: Test Example 3: herbicidal effect by foliage application, Wagner pot (Table 18, symbol D); format: in vivo, chinese sprangletop (Leptochloa chinensis); conditions: 320 g/ha
# How it was run: as §1
# rice flat sedge = assay: Test Example 3: herbicidal effect by foliage application, Wagner pot (Table 18, symbol E); format: in vivo, rice flat sedge (Cyperus iria); conditions: 320 g/ha
# How it was run: as §1
# southern crabgrass = assay: Test Example 5: herbicidal effect by foliage application, plastic box (Table 20, symbol F); format: in vivo, southern crabgrass (Digitaria ciliaris); conditions: foliage application
# How it was run: (§2)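 Sow seeds spot-wise in sterilized diluvial soil; cover with ~1.5 cm soil. Grow 14 days in greenhouse, 25° C. to 30° C. Spray foliage with emulsion diluted to predetermined amount. Rate effect after 3 weeks.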
# green foxtail = assay: Test Example 5: herbicidal effect by foliage application, plastic box (Table 20, symbol G); format: in vivo, green foxtail (Setaria viridis); conditions: foliage application
# How it was run: as §2
# barnyard grass [2] = assay: Test Example 5: herbicidal effect by foliage application, plastic box (Table 20, symbol H); format: in vivo, barnyard grass (Echinochloa crus-galli); conditions: foliage application
# How it was run: as §2
# wild oat = assay: Test Example 5: herbicidal effect by foliage application, plastic box (Table 20, symbol I); format: in vivo, wild oat (Avena fatua); conditions: foliage application
# How it was run: as §2
# blackgrass = assay: Test Example 5: herbicidal effect by foliage application, plastic box (Table 20, symbol J); format: in vivo, blackgrass (Alopecurus myosuroides); conditions: foliage application
# How it was run: as §2
# Italian ryegrass = assay: Test Example 5: herbicidal effect by foliage application, plastic box (Table 20, symbol K); format: in vivo, Italian ryegrass (Lolium multiflorum); conditions: foliage application
# How it was run: as §2
# velvetleaf = assay: Test Example 5: herbicidal effect by foliage application, plastic box (Table 20, symbol M); format: in vivo, velvetleaf (Abutilon theophrasti); conditions: foliage application
# How it was run: as §2
# redroot pigweed = assay: Test Example 5: herbicidal effect by foliage application, plastic box (Table 20, symbol N); format: in vivo, redroot pigweed (Amaranthus retroflexus); conditions: foliage application
# How it was run: as §2
# lambsquarters = assay: Test Example 5: herbicidal effect by foliage application, plastic box (Table 20, symbol O); format: in vivo, lambsquarters (Chenopodium album); conditions: foliage application
# How it was run: as §2
# chickweed = assay: Test Example 5: herbicidal effect by foliage application, plastic box (Table 20, symbol P); format: in vivo, common chickweed (Stellaria media); conditions: foliage application
# How it was run: as §2
# false cleavers = assay: Test Example 5: herbicidal effect by foliage application, plastic box (Table 20, symbol Q); format: in vivo, false cleavers (Galium spurium); conditions: foliage application
# Text: [Test Example 5] Herbicidal Effect Test by Foliage Application
# Sterilized diluvial soil was placed in a plastic box having a length of 21 cm, a width of 13 cm, and a depth of 7 cm. The seeds of each of southern crabgrass, green foxtail, barnyard grass, wild oat, blackgrass, Italian ryegrass, windgrass, velvetleaf, redroot pigweed, lambsquarters, chickweed, false cleavers, persian speedwell, corn, soybean, rice, wheat, beet, and rapeseed were sowed in a spot-like manner and covered with the soil having a thickness of about 1.5 cm. Thereafter, the plants were grown in a greenhouse at 25° C. to 30° C. After 14-day growth of the plants, the emulsion agent of the compound of the present invention prepared according to Formulation Example 2 was diluted with water so as to achieve a predetermined herbicide amount, and the diluted emulsion agent was uniformly applied to a foliage part with a small-sized spray. Three weeks after the herbicide application, the effect of the herbicide on each plant was evaluated according to the criteria of Test Example 1.
# persian speedwell = assay: Test Example 5: herbicidal effect by foliage application, plastic box (Table 20, symbol R); format: in vivo, Persian speedwell (Veronica persica); conditions: foliage application
# How it was run: as §2
# windgrass = assay: Test Example 5: herbicidal effect by foliage application, plastic box (Table 20, symbol L); format: in vivo, windgrass (Apera spica-venti); conditions: foliage application
# How it was run: as §2
# [3] = 320 g/ha, three weeks after application
# [4] = AAH 80 g/ha, three weeks after application
# [5] = 270 g/ha, 3 weeks after application
# [6] = 320 g/ha, evaluated three weeks after application
structure (smiles),measurement,setting,value
CSc1cc(F)ccc1-c1sc2ccccc2c1-c1c(O)c(C)nn(C)c1=O [1-063],"herbicidal effect on H (barnyard grass), rating 0-5",barnyard grass [1],2 (Herbicidal rate of 20% or more and less than 40%)
same,"herbicidal effect on D (Chinese sprangletop), rating 0-5",Chinese sprangletop,0 (Herbicidal rate of 5% or less (almost no effect))
same,"herbicidal effect on E (rice flat sedge), rating 0-5",rice flat sedge,3 (Herbicidal rate of 40% or more and less than 70%)
same,"herbicidal effect grade, F: southern crabgrass",southern crabgrass; [3],0 (Herbicidal rate of 5% or less (almost no effect))
same,"herbicidal effect grade, G: green foxtail",green foxtail; [3],0 (Herbicidal rate of 5% or less (almost no effect))
same,"herbicidal effect grade, H: barnyard grass",barnyard grass [2]; [3],0 (Herbicidal rate of 5% or less (almost no effect))
same,"herbicidal effect grade, I: wild oat",wild oat; [3],2 (Herbicidal rate of 20% or more and less than 40%)
same,"herbicidal effect grade, J: blackgrass",blackgrass; [3],3 (Herbicidal rate of 40% or more and less than 70%)
same,"herbicidal effect grade, K: Italian ryegrass",Italian ryegrass; [3],1 (Herbicidal rate of 5% or more and less than 20%)
same,"herbicidal effect grade, M: velvetleaf",velvetleaf; [3],0 (Herbicidal rate of 5% or less (almost no effect))
same,"herbicidal effect grade, N: redroot pigweed",redroot pigweed; [3],0 (Herbicidal rate of 5% or less (almost no effect))
same,"herbicidal effect grade, O: lambsquarters",lambsquarters; [3],3 (Herbicidal rate of 40% or more and less than 70%)
same,"herbicidal effect grade, P: chickweed",chickweed; [3],5 (Herbicidal rate of 90% or more (almost completely withered))
same,"herbicidal effect grade, Q: false cleavers",false cleavers; [3],2 (Herbicidal rate of 20% or more and less than 40%)
same,"herbicidal effect grade, R: persian speedwell",persian speedwell; [3],4 (Herbicidal rate of 70% or more and less than 90%)
CCCC(=O)Oc1c(OC)nn(C)c(=O)c1-c1c(-c2ccc(-c3ccccc3)cc2)sc2ccccc12 [1-167],"F: southern crabgrass, herbicidal effect",southern crabgrass; [4],0 (Herbicidal rate of 5% or less (almost no effect))
same,"G: green foxtail, herbicidal effect",green foxtail; [4],0 (Herbicidal rate of 5% or less (almost no effect))
same,"H: barnyard grass, herbicidal effect",barnyard grass [2]; [4],0 (Herbicidal rate of 5% or less (almost no effect))
same,"I: wild oat, herbicidal effect",wild oat; [4],0 (Herbicidal rate of 5% or less (almost no effect))
same,"J: blackgrass, herbicidal effect",blackgrass; [4],0 (Herbicidal rate of 5% or less (almost no effect))
same,"K: Italian ryegrass, herbicidal effect",Italian ryegrass; [4],0 (Herbicidal rate of 5% or less (almost no effect))
same,"L: windgrass, herbicidal effect",windgrass; [4],0 (Herbicidal rate of 5% or less (almost no effect))
same,"M: velvetleaf, herbicidal effect",velvetleaf; [4],0 (Herbicidal rate of 5% or less (almost no effect))
same,"N: redroot pigweed, herbicidal effect",redroot pigweed; [4],3 (Herbicidal rate of 40% or more and less than 70%)
same,"O: lambsquarters, herbicidal effect",lambsquarters; [4],2 (Herbicidal rate of 20% or more and less than 40%)
same,"P: chickweed, herbicidal effect",chickweed; [4],1 (Herbicidal rate of 5% or more and less than 20%)
same,"Q: false cleavers, herbicidal effect",false cleavers; [4],3 (Herbicidal rate of 40% or more and less than 70%)
same,"R: persian speedwell, herbicidal effect",persian speedwell; [4],3 (Herbicidal rate of 40% or more and less than 70%)
COCCOCOc1c(C)nn(C)c(=O)c1-c1c(-c2ccc(OCC(=O)OC)cc2)sc2ccccc12 [1-233],effect on southern crabgrass (F),southern crabgrass; [5],0 (Herbicidal rate of 5% or less (almost no effect))
same,effect on green foxtail (G),green foxtail; [5],0 (Herbicidal rate of 5% or less (almost no effect))
same,effect on barnyard grass (H),barnyard grass [2]; [5],0 (Herbicidal rate of 5% or less (almost no effect))
same,effect on wild oat (I),wild oat; [5],0 (Herbicidal rate of 5% or less (almost no effect))
same,effect on blackgrass (J),blackgrass; [5],0 (Herbicidal rate of 5% or less (almost no effect))
same,effect on Italian ryegrass (K),Italian ryegrass; [5],0 (Herbicidal rate of 5% or less (almost no effect))
same,effect on windgrass (L),windgrass; [5],0 (Herbicidal rate of 5% or less (almost no effect))
same,effect on velvetleaf (M),velvetleaf; [5],0 (Herbicidal rate of 5% or less (almost no effect))
same,effect on lambsquarters (O),lambsquarters; [5],2 (Herbicidal rate of 20% or more and less than 40%)
same,effect on false cleavers (Q),false cleavers; [5],0 (Herbicidal rate of 5% or less (almost no effect))
same,effect on persian speedwell (R),persian speedwell; [5],0 (Herbicidal rate of 5% or less (almost no effect))
CCCC(=O)Oc1c(C)nn(C)c(=O)c1-c1c(-c2ccc(OC)c(C)c2)sc2ccc(Cl)cc12 [2-120],herbicidal effect on F: southern crabgrass,southern crabgrass; [6],0 (Herbicidal rate of 5% or less (almost no effect))
same,herbicidal effect on G: green foxtail,green foxtail; [6],0 (Herbicidal rate of 5% or less (almost no effect))
same,herbicidal effect on H: barnyard grass,barnyard grass [2]; [6],0 (Herbicidal rate of 5% or less (almost no effect))
same,herbicidal effect on I: wild oat,wild oat; [6],0 (Herbicidal rate of 5% or less (almost no effect))
same,herbicidal effect on J: blackgrass,blackgrass; [6],0 (Herbicidal rate of 5% or less (almost no effect))
same,herbicidal effect on K: Italian ryegrass,Italian ryegrass; [6],0 (Herbicidal rate of 5% or less (almost no effect))
same,herbicidal effect on L: windgrass,windgrass; [6],0 (Herbicidal rate of 5% or less (almost no effect))
same,herbicidal effect on M: velvetleaf,velvetleaf; [6],0 (Herbicidal rate of 5% or less (almost no effect))
same,herbicidal effect on N: redroot pigweed,redroot pigweed; [6],0 (Herbicidal rate of 5% or less (almost no effect))
same,herbicidal effect on O: lambsquarters,lambsquarters; [6],0 (Herbicidal rate of 5% or less (almost no effect))
same,herbicidal effect on P: chickweed,chickweed; [6],5 (Herbicidal rate of 90% or more (almost completely withered))
same,herbicidal effect on Q: false cleavers,false cleavers; [6],4 (Herbicidal rate of 70% or more and less than 90%)
same,herbicidal effect on R: persian speedwell,persian speedwell; [6],5 (Herbicidal rate of 90% or more (almost completely withered))
COc1cc2sc(-c3ccc(F)cc3)c(-c3c(O)c(C)nn(C)c3=O)c2cc1OC [5-057],herbicidal effect on southern crabgrass (F),southern crabgrass; [3],0 (Herbicidal rate of 5% or less (almost no effect))
same,herbicidal effect on green foxtail (G),green foxtail; [3],0 (Herbicidal rate of 5% or less (almost no effect))
same,herbicidal effect on barnyard grass (H),barnyard grass [2]; [3],0 (Herbicidal rate of 5% or less (almost no effect))
same,herbicidal effect on wild oat (I),wild oat; [3],0 (Herbicidal rate of 5% or less (almost no effect))
same,herbicidal effect on blackgrass (J),blackgrass; [3],0 (Herbicidal rate of 5% or less (almost no effect))
same,herbicidal effect on Italian ryegrass (K),Italian ryegrass; [3],0 (Herbicidal rate of 5% or less (almost no effect))
same,herbicidal effect on windgrass (L),windgrass; [3],0 (Herbicidal rate of 5% or less (almost no effect))
same,herbicidal effect on velvetleaf (M),velvetleaf; [3],0 (Herbicidal rate of 5% or less (almost no effect))
same,herbicidal effect on lambsquarters (O),lambsquarters; [3],0 (Herbicidal rate of 5% or less (almost no effect))
same,herbicidal effect on false cleavers (Q),false cleavers; [3],0 (Herbicidal rate of 5% or less (almost no effect))
same,herbicidal effect on persian speedwell (R),persian speedwell; [3],4 (Herbicidal rate of 70% or more and less than 90%)
CCOc1ccccc1-c1cc2c(-c3c(O)c(C)nn(C)c3=O)c(-c3ccccc3OCC)sc2cc1OC [5-079],herbicidal effect on barnyard grass (H),barnyard grass [1],3 (Herbicidal rate of 40% or more and less than 70%)
same,herbicidal effect on Chinese sprangletop (D),Chinese sprangletop,0 (Herbicidal rate of 5% or less (almost no effect))
same,herbicidal effect on rice flat sedge (E),rice flat sedge,0 (Herbicidal rate of 5% or less (almost no effect))
same,herbicidal effect on southern crabgrass (F),southern crabgrass; [3],0 (Herbicidal rate of 5% or less (almost no effect))
same,herbicidal effect on green foxtail (G),green foxtail; [3],0 (Herbicidal rate of 5% or less (almost no effect))
same,herbicidal effect on barnyard grass (H),barnyard grass [2]; [3],0 (Herbicidal rate of 5% or less (almost no effect))
same,herbicidal effect on wild oat (I),wild oat; [3],0 (Herbicidal rate of 5% or less (almost no effect))
same,herbicidal effect on blackgrass (J),blackgrass; [3],0 (Herbicidal rate of 5% or less (almost no effect))
same,herbicidal effect on Italian ryegrass (K),Italian ryegrass; [3],0 (Herbicidal rate of 5% or less (almost no effect))
same,herbicidal effect on windgrass (L),windgrass; [3],0 (Herbicidal rate of 5% or less (almost no effect))
same,herbicidal effect on velvetleaf (M),velvetleaf; [3],0 (Herbicidal rate of 5% or less (almost no effect))
same,herbicidal effect on lambsquarters (O),lambsquarters; [3],0 (Herbicidal rate of 5% or less (almost no effect))
same,herbicidal effect on false cleavers (Q),false cleavers; [3],5 (Herbicidal rate of 90% or more (almost completely withered))
same,herbicidal effect on persian speedwell (R),persian speedwell; [3],0 (Herbicidal rate of 5% or less (almost no effect))
